Peptide text beside a SMILES is read from it.
How the values were obtained:
[1] = system: primary human macrophages; test: Toxicity of peptides against macrophages (PrestoBlue); format: cell-based; conditions: three independent experiments
Protocol: Human peripheral blood mononuclear cells (PBMC) were isolated by density gradient centrifugation (Ficoll-Paque™ Plus; GE Healthcare) of buffy coat preparations from anonymous donors (Institute of Transfusion Medicine, Ulm University). Monocytes were isolated from PBMCs by adherence on tissue culture treated plastic flasks (Falcon, Corning, NY, United States). Monocyte-derived macrophages were generated by incubation with granulocyte-macrophage colony-stimulating factor (10 ng/ml; Miltenyi Biotec, Bergisch Gladbach, Germany) in Macrophage-Serum Free Medium (M-SFM; Gibco, ThermoFisher Scientific, Schwerte, Germany) for 6 days.
About 1 × 10^5 macrophages were incubated with peptides for 18 h in a 96-well plate, followed by addition of 10% PrestoBlue™ (Thermo Fisher) for 20 min. The non-fluorescent resazurin-based PrestoBlue is reduced to fluorescent resorufin by mitochondrial enzymes of viable cells ([Xu et al., 2015]). The fluorescence intensity (FI) was measured at λex 560 nm and λem 600 nm using Infinite 200 PRO (Tecan, Männedorf, Suisse) plate reader. Cell viability (%) was calculated using the following formula where the ratio of the FIs of the sample and the untreated control is calculated after subtracting the background FI introduced by the same volume of cell culture medium: [FI (sample)-FI (background)]/[FI (untreated control)-FI (background)] × 100.

[2] = Half-life of Angie1 in human serum; format: in vitro ADME; conditions: human serum (Lonza 14-490E) spiked with 10 μM, 37°C, aliquots 5–120 min, LC-MS (Orbitrap Elite) signal area, triplicates, GraphPad Prism
Protocol: Human serum (14-490E, Lonza, Basel, Switzerland) was spiked with 10 μM Angie1 and incubated at 37°C for 2 h in triplicates. After 5, 10, 20, 30, 45, 60, 90, and 120 min; aliquots (5 μl) were diluted with 1.5 ml ice cold TFA (0.1%). Around 15 μl of each sample was analyzed using an Orbitrap Elite system (Thermo Fisher Scientific) as described above. XCalibur Qual Browser (Thermo Fisher Scientific) was used for visualization of the total ion chromatograms and spectra, as well as for signal area calculation. The theoretical spectrum of Angie1 and its degradation products were generated and the highest intensity signals were used as reference for detecting Angie1 and its degradation products. Plot graphs (signal area vs. time) and half-lives were calculated with GraphPad Prism 8.0 (GraphPad, La Jolla, CA, United States).

zebrafish embryos = test: Toxicity against zebrafish embryos; format: in vivo; conditions: 1, 10, and 100 μM, exposure 24 h from 24 hpf, scored at 48 hpf, n = 60 embryos each group
Protocol: Wild-type zebrafish embryos were dechorionated at 24 h post fertilization (hpf) using digestion with 1 mg/ml pronase (Sigma) in E3 medium (83 μM NaCl, 2.8 μM KCl, 5.5 μM CaCl2, and 5.5 μM MgSO4). Embryos were exposed for 24 h, in groups of three, to 100 μl of E3 medium containing Angie1 at 1, 10, and 100 μM. Each concentration was tested in two independent assays, each of which was performed on 10 × 3 embryos. The peptide solvent (PBS), diluted in E3, was used as negative control at the same amount as introduced by the highest peptide concentration. As positive control for acute toxicity/cytotoxicity the pleurocidin antimicrobial peptide NRC-03 ([…]-[…]-NH2) was used at a concentration of 6 μM as described ([Morash et al., 2011]). Abamectin at a concentration of 3.125 μM was used as positive control for neurotoxicity ([Raftery et al., 2014]). At 48 hpf (after 24 h of incubation) embryos were scored in a stereomicroscope for signs of acute toxicity/cytotoxicity (lysis and/or necrosis), developmental toxicity (delay and/or malformations), or cardiotoxicity (heart edema and/or reduced or absent circulation). Each embryo was also touched with a needle and reduced or absent touch response (escape movements) was evaluated as signs of neurotoxicity if and only if no signs of acute toxicity were present in the same embryo. […]

human macrophages = test: Uptake by macrophages (flow cytometry, confocal laser microscopy); format: cell-based; conditions: Atto647N-labeled peptide, 54 μM, 18 h, alone or incorporated into liposomes; flow cytometry and confocal microscopy, three donors
Protocol: For investigation of Angie1 internalization, 1 × 10^6 macrophages were incubated with Angie1-Atto647N or Angie1-Atto647N Lip for 18 h. Samples were then analyzed using a FACS Calibur (BD Biosciences) with FlowJo v10.4.1 (BD). For confocal laser microscopy, 0.1 × 10^6 macrophages were seeded in 200 μl M-SFM in an eight-chamber slide (Thermo Fisher) and incubated with Angie1-Atto 647 N (54 μM) or Angie1-Atto 647 N Lip (54 μM) or Angiogenin-Atto647N Lip. After overnight incubation, cells were fixed (4% PFA, Sigma-Aldrich), followed by blocking in 2% BSA. Subsequently macrophages were labeled with major histocompatibility antigen class II antibodies (HLA-DR; 1:200, clone L243, Leinco, St. Louis, MS, United States) detected by Cy2-conjugated goat anti-mouse antibodies (1:200, Dianova, Hamburg, Germany). Cell nuclei were stained with DAPI (1:200, Sigma-Aldrich) diluted in 1% BSA and 0.1% Triton X-100 in PBS (all Sigma-Aldrich). Images were acquired using the inverted laser scanning confocal microscope LSM 710 (Zeiss, Oberkochen, Germany). Image processing was performed using ImageJ software (v 1.52c).

Solubility in water = format: physicochemical
[3] = system: Mycobacterium tuberculosis H37Rv (extracellular Mtb); format: cell-based; conditions: 100 μM peptide; 2 × 10^6 Mtb, 96 h incubation, 3H-Uracil uptake vs untreated control; mean ± SD, triplicates of three independent experiments
[4] = system: intracellular Mtb in primary human macrophages; format: cell-based, Mycobacterium tuberculosis; conditions: 10 μM, 4 days, MOI 5, CFU on 7H11 after 21 days; diluent control 9.5-fold; p < 0.05; six donors
[5] = system: primary human monocytes or macrophages; test: Chemotaxis or cytokine release by monocytes or macrophages (not shown); format: cell-based; conditions: data not shown

Compound	Toxicity for primary human macrophages ([1]; Angie1 at 27, 54, or 108 μM, PrestoBlue, 24 h)	Half-life in human serum [2] [min]	half-life at 10 μM [2] [min]	Toxicity to zebrafish embryos (acute/cyto-, cardio-, developmental, neurotoxicity) (zebrafish embryos)	Uptake by macrophages (human macrophages)	Solubility in water (Solubility in water)	Antimicrobial activity against extracellular Mtb [3] [%]	Viability of macrophages ([1]; Angiogenin 10 μM, 18 h (legend: 24 h), PrestoBlue resazurin metabolism)	Multiplication of intracellular Mtb (n-fold growth d4 vs d0) [4] [fold]	Induction of chemotaxis or cytokine release [5]
CC[C@H](C)[C@H](NC(=O)[C@H](C)NC(=O)[C@H](CCCCN)NC(=O)[C@@H](NC(=O)[C@H](CO)NC(=O)[C@@H](NC(=O)[C@H](CCCCN)NC(=O)[C@H](CC(N)=O)NC(=O)CNC(=O)[C@H](Cc1c[nH]cn1)NC(=O)[C@@H](NC(=O)[C@H](Cc1ccccc1)NC(=O)[C@@H](NC(=O)[C@H](CC(N)=O)NC(=O)[C@@H](NC(=O)[C@H](C)NC(=O)[C@@H](N)CCCCN)[C@@H](C)CC)[C@@H](C)O)[C@@H](C)CC)[C@@H](C)CC)[C@@H](C)CC)C(=O)O [Angie1] (H-KAINTFIHGNKISIKAI-OH)	not toxic	3	3.06	no toxicity	equally efficient	soluble in water	–	–	–	–
Angiogenin: endogenous 123 amino acid, 14.1 kDa protein identified in hemofiltrate; tested as synthetic Angiogenin	–	–	–	–	–	–	94 ± 2	did not affect the viability	5.2	do not induce chemotaxis or cytokine release
